Experimental findings from patent publication US20030190334A1, “Low dose liquid entecavir formulations and use” (priority 2002, published 2003) are described below.

The structures appear in SMILES notation.

This series can be described thus: Reaction of entecavir with sweetener or flavoring agent that contains aldehyde and/or ketone groups. Type of series: physicochemical. The source says:
While entecavir is potent, it is also extremely bitter. To combat the bitterness, a sweetener is generally used. However, entecavir has shown a tendency to react with commonly used sweeteners, such as sucrose, creating stability concerns. Entecavir has a primary amine group in its structure that has the propensity to react with any sweetener or flavoring agent that contains aldehyde and/or ketone groups.

Regarding `C=C1[C@H](CO)[C@@H](O)C[C@@H]1n1cnc2c(=O)[nH]c(N)nc21` [Entecavir, [1S-(1α,3α,4β)]-2-amino-1,9-dihydro-9-[4-hydroxy-3-(hydroxymethyl)-2-methylenecyclopentyl]-6H-purin-6-one], the “reaction with sweetener or flavoring agent that contains aldehyde and/or ketone groups” value runs as follows: (pH 5 to 7) “minimized”; (weakly acidic pH (pH 3 to 4)) “more pronounced”.
